Literature values, collected in patent US10071072B2, “Method for treating neurotrauma” (N.V. Nutricia, priority 2011, dated 2018).

System: neurotrauma
Conditions: in vivo supply; King et al. J. Neurosci.

For CC/C=C\C/C=C\C/C=C\CCCCCCCC(=O)O [α-linolenic acid], which neuroprotection in neurotrauma is on record?
The neuroprotection in neurotrauma was “neuroprotective”.
